Results on 27 compounds are retold here after patent US9051310B2, “Nicotinamide derivative or salt thereof” (FUJIFILM Corporation, priority 2011, dated 2015).

In this test the target is T1, glutathione S-transferase (GST)-linked full-length human Syk protein (Homo sapiens, UniProt P43405).
T1 construct: glutathione S-transferase (GST)-linked full-length human Syk protein; purchased Carna Biosciences; host or cells: Baculovirus expression system
Kind of test: Syk enzyme assay. Conditions: 0.83 nM Syk, time-resolved fluorescence; read-out: IC50 of Syk-inhibitory activity. The test is classed as biochemical. The procedure:
A glutathione S-transferase (GST)-linked full-length human Syk protein (Carna Biosciences), which had been generated using a Baculovirus expression system, was used in the Syk enzyme assay.
7.5 μl of a reaction solution (0.83 nM Syk, 20 mM HEPES, 10 mM MgCl2, 50 mM NaCl, 2 mM DTT, 0.05% BSA, pH 7.0) containing a Syk protein and a predetermined concentration of a test compound was shaken for 2 minutes, and it was then left at rest at room temperature for 13 minutes. Thereafter, 0.5 μM substrate peptide (Biotin-[…]-NH2) and 5 μL of a solution containing 67.5 μM ATP were added to the reaction solution, and the obtained mixture was then shaken for 2 minutes. The reaction solution was further left at rest at room temperature for 40 minutes, so as to carry out an enzyme reaction.
Thereafter, 50 μL of a reaction termination solution [60 nM APC-SA, 0.45 μg/mL Eu-PT66, 30 mM HEPES (pH 7.0), 150 mM KF, 30 mM EDTA, 0.15% BSA, 0.075% Tween20] containing Allophycocyanin-Streptavidin (APC-SA; PerkinElmer) and an Eu-W1024-labeled anti-phosphotyrosine PT66 antibody (Eu-PT66; PerkinElmer) was added to the reaction solution to terminate the enzyme reaction. At the same time, the reaction solution was left at rest at room temperature for 1 hour, so as to carry out an antigen-antibody reaction. Thereafter, using EnVision (PerkinElmer), the level of time-resolved fluorescence was measured at 615 nm and 665 nm, so that the phosphorylation of the substrate peptide was measured.
The following are used in Table 5 to denote standards for evaluating IC50 of Syk-inhibitory activity. • A: Up to 10 nM • B: 10 to 50 nM • C: 50 to 100 nM

For the compound `CCC[C@@H](Nc1nc(Nc2ccc3c(c2)c(N(C)CCOC)nn3C)c(C(N)=O)cc1F)[C@H](C)N` [Example 2-459, 6-(((2S,3R)-2-aminohexan-3-yl)amino)-5-fluoro-2-((3-((2-methoxyethyl)(methyl)amino)-1-methyl-1H-indazol-5-yl)amino)nicotinamide], the IC50 (in general, the concentration that gives 50% inhibition) was in the range of 0.01 to 0.05 µM.
Consider `CC[C@@H](Nc1nc(Nc2cncc3c2cnn3CCOC)c(C(N)=O)cc1F)[C@H](C)N` [Example 2-387, 6-(((2S,3R)-2-aminopentan-3-yl)amino)-5-fluoro-2-((1-(2-methoxyethyl)-1H-pyrazolo[3,4-c]pyridin-4-yl)amino)nicotinamide], for which the half-maximal inhibitory concentration (IC50) lay in the range of 0.01 to 0.05 µM.
The result for `CC[C@@H](Nc1nc(Nc2ccc3c(c2)c(N(C)C)nn3CCOC)c(C(N)=O)cc1F)[C@H](C)N` [Example 2-502, 6-(((2S,3R)-2-aminopentan-3-yl)amino)-2-((3-(dimethylamino)-1-(2-methoxyethyl)-1H-indazol-5-yl)amino)-5-fluoronicotinamide] reads 0.01 to 0.05 µM; that for `COCCn1nc(N(C)C)c2cc(Nc3nc(N[C@H](C4CC4)[C@H](C)N)c(F)cc3C(N)=O)ccc21` [Example 2-504], 0.01 to 0.05 µM.
In the case of `CC[C@H](N)[C@@H](CC)Nc1nc(Nc2ccc3c(c2)c(N(C)C)nn3C)c(C(N)=O)cc1F` [Example 2-92, 6-(((3R,4S)-4-aminohexan-3-yl)amino) 2-((3-(dimethylamino)-1-methyl-1H-indazol-5-yl)amino)-5-fluoronicotinamide], the IC50 lay in the range of 0.01 to 0.05 µM.
On to `CCn1ncc2cc(Nc3nc(N[C@H](c4ccc(OC)cc4)[C@H](C)N)c(F)cc3C(N)=O)ccc21` [Example 2-341, 6-(((1R,2S)-2-amino-1-(4-methoxyphenyl)propyl)amino)-2-((1-ethyl-1H-indazol-5-yl)amino)-5-fluoronicotinamide], for which the IC50 was less than 0.01 µM.
With `CCOC[C@@H](Nc1nc(Nc2cnc(C)c(-n3nccn3)c2)c(C(N)=O)cc1F)[C@H](C)N` [Example 2-183, 6-(((2S,3S)-3-amino-1-ethoxybutan-2-yl)amino)-5-fluoro-2-((6-methyl-5-(2H-1,2,3-triazol-2-yl)pyridin-3-yl)amino)nicotinamide], the IC50 was in the range of 0.05 to 0.1 µM.
Regarding `CC[C@H](N)[C@@H](C)Nc1nc(Nc2cnc(C)c(C)c2)c(C(N)=O)cc1F` [Example 2-35, 6-(((2R,3S)-3-aminopentan-2-yl)amino)-2-((5,6-dimethylpyridin-3-yl)amino)-5-fluoronicotinamide], the IC50 is 0.01 to 0.05 µM.
On to `CCCC[C@@H](Nc1nc(Nc2cccc3c2cnn3CC)c(C(N)=O)cc1F)[C@H](C)N` [Example 2-99, 6-(((2S,3R)-2-aminoheptan-3-yl)amino)-2-((1-ethyl-1H-indazol-4-yl)amino)-5-fluoronicotinamide], for which the IC50 is less than 0.01 µM.
`CCCC[C@@H](Nc1nc(Nc2cc(F)c3c(c2)c(N(C)C)nn3C)c(C(N)=O)cc1F)[C@H](C)N` [Example 2-189, 6-(((2S,3R)-2-aminoheptan-3-yl)amino)-2-((3-(dimethylamino)-7-fluoro-1-methyl-1H-indazol-5-yl)amino)-5-fluoronicotinamide]: the IC50 is less than 0.01 µM.
Then `C[C@H](N)[C@H](Nc1nc(Nc2cnc3c(c2)c(N(C)C)nn3C)c(C(N)=O)cc1F)C1CCC1` [Example 2-293, 6-(((1R,2S)-2-amino-1-cyclobutylpropyl)amino)-2-((3-(dimethylamino)-1-methyl-1H-pyrazolo[3,4-b]pyridin-5-yl)amino)-5-fluoronicotinamide], with less than 0.01 µM.
For `C[C@@H](Nc1nc(Nc2ccc3c(c2)c(N(C)C)nn3C)c(C(N)=O)cc1F)[C@@H](N)C1CC1` [Example 2-301, 6-(((1S,2R)-1-amino-1-cyclopropylpropan-2-yl)amino)-2-((3-(dimethylamino)-1-methyl-1H-indazol-5-yl)amino)-5-fluoronicotinamide], the IC50 was 0.05 to 0.1 µM.
As to `C[C@H](N)[C@@H](Cc1ccccc1)Nc1nc(Nc2ccc3c(c2)c(N(C)C)nn3C)c(C(N)=O)cc1F` [Example 2-424, 6-(((2R,3S)-3-amino-1-phenylbutan-2-yl)amino)-2-((3-(dimethylamino)-1-methyl-1H-indazol-5-yl)amino)-5-fluoronicotinamide], the concentration for half-maximal inhibition (IC50) is less than 0.01 µM.
As to `CCn1ncc2c(Nc3nc(N[C@H](C(C)C)[C@H](C)N)c(F)cc3C(N)=O)cccc21` [Example 2-97, 6-(((2S,3R)-2-amino-4-methylpentan-3-yl)amino)-2-((1-ethyl-1H-indazol-4-yl)amino)-5-fluoronicotinamide], the IC50 was 0.05 to 0.1 µM.
In the case of `COc1cc(Nc2nc(N[C@H](C(C)C)[C@H](C)N)c(F)cc2C(N)=O)ccn1` [Example 2-107, 6-(((2S,3R)-2-amino-4-methylpentan-3-yl)amino)-5-fluoro-2-((2-methoxypyridin-4-yl)amino)nicotinamide], the IC50 fell in the range of 0.05 to 0.1 µM.
For `C[C@H](N)[C@H](Nc1nc(Nc2ccc3c(c2)c(N(C)C)nn3C)c(C(N)=O)cc1F)c1cccs1` [Example 2-510, 6-(((1S,2S)-2-amino-1-(thiophen-2-yl)propyl)amino)-2-((3-(dimethylamino)-1-methyl-1H-indazol-5-yl)amino)-5-fluoronicotinamide], the IC50 is less than 0.01 µM.
Turning to `C[C@H](N)[C@H](Nc1nc(Nc2ccc(F)c(F)c2)c(C(N)=O)cc1F)C1CCC1` [Example 2-61, 6-(((1R,2S)-2-amino-1-cyclobutylpropyl)amino)-2-((3,4-difluorophenyl)amino)-5-fluoronicotinamide], the IC50 was 0.01 to 0.05 µM.
On to `COCCOc1ncc(Nc2nc(N[C@H](C3CC3)[C@H](C)N)c(F)cc2C(N)=O)cc1-n1nccn1` [Example 2-161, 6-(((1R,2S)-2-amino-1-cyclopropylpropyl)amino)-5-fluoro-2-((6-(2-methoxyethoxy)-5-(2H-1,2,3-triazol-2-yl)pyridin-3-yl)amino)nicotinamide], for which the IC50 lay within 0.01 to 0.05 µM.
Take `COCCn1nc(N(C)C)c2cc(Nc3nc(N[C@@H]4CCOC[C@@H]4N)c(F)cc3C(N)=O)ccc21` [Example 2-501, 6-(((3R,4R)-3-aminotetrahydro-2H-pyran-4-yl)amino)-2-((3-(dimethylamino)-1-(2-methoxyethyl)-1H-indazol-5-yl)amino)-5-fluoronicotinamide]: the IC50 was 0.01 to 0.05 µM.
For `Cc1ncc(Nc2nc(N[C@H](c3cccc(F)c3)[C@H](C)N)c(F)cc2C(N)=O)cc1F` [Example 2-453, 6-(((1R,2S)-2-amino-1-(3-fluorophenyl)propyl)amino)-5-fluoro-2-((5-fluoro-6-methylpyridin-3-yl)amino)nicotinamide], the IC50 is less than 0.01 µM.
Regarding `COc1nn(C)c2ccc(Nc3nc(N[C@H](C(C)C)[C@H](C)N)c(F)cc3C(N)=O)cc12` [Example 2-81, 6-(((2S,3R)-2-amino-4-methylpentan-3-yl)amino)-5-fluoro-2-((3-methoxy-1-methyl-1H-indazol-5-yl)amino)nicotinamide], the IC50 was in the range of 0.01 to 0.05 µM.
As for `C[C@H](N)[C@H](Nc1nc(Nc2cncc3c2cnn3CC(F)F)c(C(N)=O)cc1F)C1CCC1` [Example 2-401, 6-(((1R,2S)-2-amino-1-cyclobutylpropyl)amino)-2-((1-(2,2-difluoroethyl)-1H-pyrazolo[3,4-c]pyridin-4-yl)amino)-5-fluoronicotinamide], the IC50 was less than 0.01 µM.
Turning to `CC[C@H](N)[C@H](Nc1nc(Nc2cncc(F)c2)c(C(N)=O)cc1F)C1CC1` [Example 2-486, 6-(((1R,2S)-2-amino-1-cyclopropylbutyl)amino)-5-fluoro-2-((5-fluoropyridin-3-yl)amino)nicotinamide], the IC50 fell in the range of 0.01 to 0.05 µM.
Then `CC[C@@H](Nc1nc(Nc2ccc3[nH]nc(N(C)C)c3c2)c(C(N)=O)cc1F)[C@H](C)N` [Example 2-493, 6-(((2S,3R)-2-aminopentan-3-yl)amino)-2-((3-(dimethylamino)-1H-indazol-5-yl)amino)-5-fluoronicotinamide], with less than 0.01 µM; and `COC[C@@H](Nc1nc(Nc2cnc3c(c2)c(OC)nn3C)c(C(N)=O)cc1F)[C@H](C)N` [Example 2-256, 6-(((2S,3S)-3-amino-1-methoxybutan-2-yl)amino)-5-fluoro-2-((3-methoxy-1-methyl-1H-pyrazolo[3,4-b]pyridin-5-yl)amino)nicotinamide], with 0.05 to 0.1 µM.
For `CC[C@@H](Nc1nc(Nc2cnc(N3CCOCC3)c(F)c2)c(C(N)=O)cc1F)[C@H](C)N` [Example 2-259, 6-(((2S,3R)-2-aminopentan-3-yl)amino)-5-fluoro-2-((5-fluoro-6-morpholinopyridin-3-yl)amino)nicotinamide], the IC50 is 0.05 to 0.1 µM.
With `COCCn1ncc2cc(Nc3nc(N[C@H](c4ccc(OC)cc4)[C@H](C)N)c(F)cc3C(N)=O)ccc21` [Example 2-455, 6-(((1R,2S)-2-amino-1-(4-methoxyphenyl)propyl)amino)-5-fluoro-2-((1-(2-methoxyethyl)-1H-indazol-5-yl)amino)nicotinamide], the 50% inhibitory concentration (IC50) is less than 0.01 µM.
